Laboratory results: ChEMBL document CHEMBL1125617, “N6-substituted adenosine receptor agonists: potential antihypertensive agents” (J Med Chem, 1991)

What was measured:
[1] = biological target: Adenosine receptors; A1 & A2 (Rattus norvegicus) (UniProt P29276+P25099+P30543); assay: Ratio of Ki values of A1 adenosine and A2 adenosine receptor; format: protein assay
Adenosine receptor A1 = biological target: T1, Adenosine receptor A1 (Rattus norvegicus, UniProt P25099); assay: Binding affinity towards adenosine A1 receptor
T1 sequence (P25099 whole entry): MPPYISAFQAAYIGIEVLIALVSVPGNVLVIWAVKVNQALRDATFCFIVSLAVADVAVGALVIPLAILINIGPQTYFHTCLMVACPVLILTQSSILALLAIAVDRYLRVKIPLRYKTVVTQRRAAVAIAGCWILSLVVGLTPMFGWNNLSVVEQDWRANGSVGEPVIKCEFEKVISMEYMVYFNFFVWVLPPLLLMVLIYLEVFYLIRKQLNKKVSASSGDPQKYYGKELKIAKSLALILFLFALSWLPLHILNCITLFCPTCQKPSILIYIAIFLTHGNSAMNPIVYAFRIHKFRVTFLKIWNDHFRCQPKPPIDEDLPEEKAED

Adenosine A2 receptor = Adenosine A2 receptor (Rattus norvegicus, UniProt P29276+P30543); assay: Binding affinity towards adenosine A2 receptor; format: protein assay
Rattus norvegicus [2] = assay: Antihypertensive activity measured as change in heart rate was measured for a 10-h after 10 mg/kg oral dose; format: functional
Rattus norvegicus [3] = assay: Antihypertensive activity was measured as change in blood pressure for a 10-h after 10 mg/kg oral dose; format: functional
Rattus norvegicus [4] = assay: Antihypertensive activity measured as change in blood pressure for a 10-h after 10 mg/kg oral dose in rat; format: functional

Ratio [1] | Ki (Adenosine receptor A1) [nM] | Ki (Adenosine A2 receptor) [nM] | SMILES | Change (Rattus norvegicus [2]) [%] | Change (Rattus norvegicus [3]) [%] | Change (Rattus norvegicus [4]) [%]
9.6 | 41.2 | 396 | CCOc1cccc2c1CCCC2Nc1ncnc2c1ncn2[C@@H]1O[C@H](CO)[C@@H](O)[C@H]1O (stereo not given in full) | <10 | -42 | 
36.5 | 13.6 | 496 | OC[C@H]1O[C@@H](n2cnc3c(NC4COc5ccccc5C4)ncnc32)[C@H](O)[C@@H]1O (stereo not given in full) | -33 | -38 | 
5.3 | 63.5 | 339 | OC[C@H]1O[C@@H](n2cnc3c(NC4CCOc5ccccc54)ncnc32)[C@H](O)[C@@H]1O (stereo not given in full) | 21 |  | -21
9.8 | 275 | 2705 | OC[C@H]1O[C@@H](n2cnc3c(NCC4(O)CCCCc5ccccc54)ncnc32)[C@H](O)[C@@H]1O (stereo not given in full) | <10 |  | -14
1.83 | 31.9 | 58.3 | OC[C@H]1O[C@@H](n2cnc3c(NC4CCSc5ccccc54)ncnc32)[C@H](O)[C@@H]1O (stereo not given in full) | 29 |  | -23
0.53 | 99.8 | 53.4 | OC[C@H]1O[C@@H](n2cnc3c(NCC4=CCCc5ccccc54)ncnc32)[C@H](O)[C@@H]1O | 16 |  | -39
8.6 | 20.4 | 175 | OC[C@H]1O[C@@H](n2cnc3c(NC4CCCc5c(O)cccc54)ncnc32)[C@H](O)[C@@H]1O (stereo not given in full) | <10 |  | <10
9.2 | 23.7 | 218 | COc1cccc2c1CCCC2Nc1ncnc2c1ncn2[C@@H]1O[C@H](CO)[C@@H](O)[C@H]1O (stereo not given in full) | -31 |  | -52
120 | 104 | 12480 | CCCCCOc1ccc2c(c1)CCC2Nc1ncnc2c1ncn2[C@@H]1O[C@H](CO)[C@@H](O)[C@H]1O (stereo not given in full) | -20 |  | -47
102 | 425 | 43440 | CC(C)Oc1ccc2c(c1)C(Nc1ncnc3c1ncn3[C@@H]1O[C@H](CO)[C@@H](O)[C@H]1O)CCC2 (stereo not given in full) | 27 |  | -41
31.4 | 61.3 | 1922 | OC[C@H]1OC(n2cnc3c(NCC4(O)CCCc5ccccc54)ncnc32)[C@H](O)[C@@H]1O (stereo not given in full) | <10 |  | <10
12.9 | 5.19 | 66.7 | OC[C@H]1O[C@@H](n2cnc3c(NCC4CCc5ccccc54)ncnc32)[C@H](O)[C@@H]1O (stereo not given in full) | -15 |  | -40

Continued, molecule first:

SMILES | Ratio [1] | Ki (Adenosine receptor A1) [nM] | Ki (Adenosine A2 receptor) [nM] | Change (Rattus norvegicus [2]) [%] | Change (Rattus norvegicus [3]) [%] | Change (Rattus norvegicus [4]) [%]
OC[C@H]1OC(n2cnc3c(NCC4=CCc5ccccc54)ncnc32)[C@H](O)[C@@H]1O (stereo not given in full) | 1.36 | 32.4 | 44.2 | 26 |  | -32
OC[C@H]1O[C@@H](n2cnc3c(NC4CCCc5ccc(O)cc54)ncnc32)[C@H](O)[C@@H]1O (stereo not given in full) | 4 | 40.1 | 160 | <10 |  | -17
OC[C@H]1O[C@@H](n2cnc3c(N[C@@H]4CCc5ccccc54)ncnc32)[C@H](O)[C@@H]1O | 18.6 | 22.2 | 412 | -18 |  | -37
CCCOc1ccc2c(c1)CCC2Nc1ncnc2c1ncn2[C@@H]1O[C@H](CO)[C@@H](O)[C@H]1O (stereo not given in full) | 188 | 28.2 | 5302 | -30 |  | -43
COc1cc2c(cc1OC)C(Nc1ncnc3c1ncn3[C@@H]1O[C@H](CO)[C@@H](O)[C@H]1O)CC2 (stereo not given in full) | 26.2 | 115 | 3002 | <10 |  | -19
OC[C@H]1O[C@@H](n2cnc3c(NC4CCc5cc6c(cc54)OCO6)ncnc32)[C@H](O)[C@@H]1O (stereo not given in full) | 89.9 | 50.5 | 4539 | -21 |  | -21
OC[C@H]1O[C@@H](n2cnc3c(NC4CCCc5ccc(OCc6ccccc6)cc54)ncnc32)[C@H](O)[C@@H]1O (stereo not given in full) | 12.4 | 7660 | 95100 | 20 |  | -30
OC[C@H]1OC(n2cnc3c(NC4CCc5ccccc5C4)ncnc32)[C@H](O)[C@@H]1O (stereo not given in full) | 40.3 | 8.39 | 339 | -44 |  | -47
OC[C@H]1O[C@@H](n2cnc3c(N[C@@H]4CCCc5ccccc54)ncnc32)[C@H](O)[C@@H]1O | 7.1 | 22.9 | 163 | -30 |  | -57
OC[C@H]1O[C@@H](n2cnc3c(NC4CCCc5ccccc5C4)ncnc32)[C@H](O)[C@@H]1O (stereo not given in full) | 48.7 | 25.4 | 1234 | -32 |  | -22
OC[C@H]1O[C@@H](n2cnc3c(NC4CSc5ccccc5C4)ncnc32)[C@H](O)[C@@H]1O (stereo not given in full) | 63.9 | 3.6 | 229 | -33 |  | -21
